Test results published in patent US20170114070A1, “INHIBITORS OF THE WNT SIGNALLING PATHWAYS” (Bayer Pharma Aktiengesellschaft, priority 2014, published 2017).
Structures can show the parent of a compound that is named as a salt.

Tests used:
[1] = system: constitutive active Wnt pathway (HCT116 TOPFlash); assay: Cellular reporter assay, HCT116 Super TopFlash (constitutive active Wnt pathway); assay type: cell-based; details: Homo sapiens, HCT-116; HCT116 stably transfected with Super TopFlash vector; 36 hours incubation; luciferase expression
Description: In order to discover and characterize small molecules which inhibit the constitutive active colorectal cancer cell (CRC) Wnt pathway, a cellular reporter assay was employed. The corresponding assay cell was generated by transfection of the colorectal cancer cell line HCT116 (ATCC, #CCL-247) with the Super TopFlash vector (Morin, Science 275, 1997, 1787-1790; Molenaar et al., Cell 86 (3), 1996, 391-399). The HCT116 cell line is cultivated at 37° C. and 5% CO2 in DMEM/F-12 (Life Technologies, #11320-074), supplemented with 2 mM glutamine, 20 mM HEPES, 1.4 mM pyruvate, 0.15% Na-bicarbonate and 10% foetal bovine serum (GIBCO, #10270), this cancer cell line is pathophysiological relevant since it carries a deletion of position S45 in the β-catenin gene, leading to constitutive active Wnt signaling. Stable transfectants were generated by cotransfection with pcDNA3 and selection of stable transfected cells with 1 mg/ml G418.
(§1) In a parallel approach, HCT116 cells were cotransfected with the FOP control vector and pcDNA3. The FOP vector is identical to the TOP construct, but it contains instead of functional TCF elements a randomized, non-functional sequence. For this transfection a stable transfected cell line was generated as well.
(§2) In preparation of the assay, the two cell lines were plated 24 hours before at 10000 cells per well of a 384 micro titre plate (MTP) in 30 μL growth medium. Selective inhibitory activity for small molecules on the mutated Wnt pathway was determined after parallel incubation of both (TOP and FOP) HCT116 reporter cell lines with a compound dilution series from 50 μM to 15 nM in steps of 3.16-fold dilutions in CAFTY buffer (130 mM NaCl, 5 mM KCl, 20 mM HEPES, 1 mM MgCl2, 5 mM NaHCO3, pH 7.4) containing 2 mM Ca^2+ and 0.01% BSA. The compounds were thereby serially prediluted in 100% DMSO and thereafter in addition 50 fold into the CAFTY compound dilution buffer (described above). From this dilution 10 μL were added to the cells in 30 μL growth medium and incubated for 36 hours at 37° C. and 5% CO2. Thereafter luciferase assay buffer (1:1 mixture of luciferase substrate buffer (20 mM Tricine, 2.67 mM MgSO4, 0.1 mM EDTA, 4 mM DTT, 270 μM Coenzyme A, 470 μM Luciferin, 530 μM ATP, ph adjusted to pH 7.8 with a sufficient volume of 5M NaOH) and Triton buffer (30 mL Triton X-100, 115 mL glycerol, 308 mg Dithiothreitol, 4.45 g Na2HPO4.2H2O, 3.03 g TRIS HCl, ad 1 l H20, pH 7.8) was added as equal volume to the compound solution on the cells to determine luciferase expression as a measure of Wnt signaling activity in a luminometer.

[2] = system: HCT116 FOPFlash (FOP control vector, non-functional TCF elements); assay: Cellular control reporter assay, HCT116 FOP control vector; assay type: cell-based; details: Homo sapiens, HCT-116; HCT116 stably transfected with FOP control vector; 36 hours incubation; luciferase expression; dilution series from 50 μM
Description: as §1, §2

Compound: O=C(CN1CCN(CC(F)F)CC1)Nc1cc(C(=O)Nc2ccc(-c3ccccc3)nn2)ccc1OC(F)(F)F [Example 5, 3-({[4-(2,2-difluoroethyl)piperazin-1-yl]acetyl}amino)-N-(6-phenylpyridazin-3-yl)-4-(trifluoromethoxy)benzamide]
- IC50 [1]: 0.205 µM
- IC50 [2]: ≥ 50 µM

Compound: CN1CCN(CC(=O)Nc2cc(C(=O)Nc3cnc(-c4cc(F)cc(F)c4)cn3)ccc2OC(F)(F)F)CC1 [Example 43, N-[5-(3,5-difluorophenyl)pyrazin-2-yl]-3-{[(4-methylpiperazin-1-yl)acetyl]amino}-4-(trifluoromethoxy)benzamide]
- IC50 [1]: 0.155 µM
- IC50 [2]: 27.6 µM

Compound: O=C(CN1CCOCC1)Nc1cc(C(=O)Nc2cnc(-c3ccccn3)cn2)ccc1OC(F)(F)F [Example 61, 3-[(morpholin-4-ylacetyl)amino]-N-[5-(pyridin-2-yl)pyrazin-2-yl]-4-(trifluoromethoxy)benzamide]
- IC50 [1]: ≥ 50 µM
- IC50 [2]: ≥ 50 µM

Compound: O=C(CN1CCOCC1)Nc1cc(C(=O)Nc2cnc(-c3cccnc3)cn2)ccc1OC(F)(F)F [Example 23, 3-[(morpholin-4-ylacetyl)amino]-N-[5-(pyridin-3-yl)pyrazin-2-yl]-4-(trifluoromethoxy)benzamide]
- IC50 [1]: 0.0297 µM
- IC50 [2]: 46 µM

Compound: CN1CCN(CC(=O)Nc2cc(C(=O)Nc3ccc(-c4cnc(N)nc4)nn3)ccc2OC(F)(F)F)CC1 [Example 3, N-[6-(2-aminopyrimidin-5-yl)pyridazin-3-yl]-3-{[(4-methylpiperazin-1-yl)acetyl]amino}-4-(trifluoromethoxy)benzamide]
- IC50 [1]: 0.0992 µM
- IC50 [2]: ≥ 50 µM

Compound: Nc1ccc(-c2cnc(NC(=O)c3ccc(OC(F)(F)F)c(NC(=O)CN4CCOCC4)c3)cn2)cn1 [Example 46, N-[5-(6-aminopyridin-3-yl)pyrazin-2-yl]-3-[(morpholin-4-ylacetyl)amino]-4-(trifluoromethoxy)benzamide]
- IC50 [1]: 16.8 µM
- IC50 [2]: ≥ 50 µM

Compound: CN1CCN(CC(=O)Nc2cc(C(=O)Nc3cnc(-c4cccc(F)c4)cn3)ccc2OC(F)(F)F)CC1 [Example 59, N-[5-(3-fluorophenyl)pyrazin-2-yl]-3-{[(4-methylpiperazin-1-yl)acetyl]amino}-4-(trifluoromethoxy)benzamide]
- IC50 [1]: 3 µM
- IC50 [2]: ≥ 50 µM

Compound: CN1CCN(CC(=O)Nc2cc(C(=O)Nc3cnc(-c4ccccc4)cn3)ccc2OC(F)(F)F)CC1 [Example 11, 3-{[(4-methylpiperazin-1-yl)acetyl]amino}-N-(5-phenylpyrazin-2-yl)-4-(trifluoromethoxy)benzamide]
- IC50 [1]: 0.013 µM
- IC50 [2]: ≥ 50 µM

Compound: Cc1ccccc1-c1cnc(NC(=O)c2ccc(OC(F)(F)F)c(NC(=O)CN3CCN(C)CC3)c2)cn1 [Example 42, N-[5-(2-methylphenyl)pyrazin-2-yl]-3-{[(4-methylpiperazin-1-yl)acetyl]amino}-4-(trifluoromethoxy)benzamide]
- IC50 [1]: 0.12 µM
- IC50 [2]: ≥ 50 µM

Compound: O=C(CN1CCOCC1)Nc1cc(C(=O)Nc2ccc(-c3ccccc3)nn2)ccc1OC(F)(F)F [Example 7, 3-[(morpholin-4-ylacetyl)amino]-N-(6-phenylpyridazin-3-yl)-4-(trifluoromethoxy)benzamide]
- IC50 [1]: 0.02 µM
- IC50 [2]: ≥ 50 µM

Compound: CN1CCN(CC(=O)Nc2cc(C(=O)Nc3cnc(-c4cccnc4F)cn3)ccc2OC(F)(F)F)CC1 [Example 36, N-[5-(2-fluoropyridin-3-yl)pyrazin-2-yl]-3-{[(4-methylpiperazin-1-yl)acetyl]amino}-4-(trifluoromethoxy)benzamide hydrochloride]
- IC50 [1]: 0.12 µM
- IC50 [2]: ≥ 50 µM

Compound: O=C(CN1CCOCC1)Nc1cc(C(=O)Nc2cnc(-c3ccccn3)cn2)ccc1OC1CC1 [Example 50, 4-(cyclopropyloxy)-3-[(morpholin-4-ylacetyl)amino]-N-[5-(pyridin-2-yl)pyrazin-2-yl]benzamide]
- IC50 [1]: 16.9 µM
- IC50 [2]: ≥ 50 µM

Compound: O=C(CN1CCOCC1)Nc1cc(C(=O)Nc2ccc(-c3cccnc3F)nn2)ccc1OC(F)(F)F [Example 17, N-[6-(2-fluoropyridin-3-yl)pyridazin-3-yl]-3-[(morpholin-4-ylacetyl)amino]-4-(trifluoromethoxy)benzamide]
- IC50 [1]: 0.418 µM
- IC50 [2]: ≥ 50 µM

Compound: O=C(CN1CCOCC1)Nc1cc(C(=O)Nc2cnc(-c3cnccn3)cn2)ccc1OC1CC1 [Example 52, N-(2,2′-bipyrazin-5-yl)-4-(cyclopropyloxy)-3-[(morpholin-4-ylacetyl)amino]benzamide]
- IC50 [1]: 0.372 µM
- IC50 [2]: 44.7 µM

Compound: CN1CCN(CC(=O)Nc2cc(C(=O)Nc3ncc(-c4ccccc4)nn3)ccc2OC(F)(F)F)CC1 [Example 18, 3-{[(4-methylpiperazin-1-yl)acetyl]amino}-N-(6-phenyl-1,2,4-triazin-3-yl)-4-(trifluoromethoxy)benzamide]
- IC50 [1]: 0.016 µM
- IC50 [2]: 20 µM

Compound: CN1CCN(CC(=O)Nc2cc(C(=O)Nc3ccc(-c4ccc(N)nc4)nn3)ccc2OC(F)(F)F)CC1 [Example 1, N-[6-(6-aminopyridin-3-yl)pyridazin-3-yl]-3-{[(4-methylpiperazin-1-yl)acetyl]amino}-4-(trifluoromethoxy)benzamide]
- IC50 [1]: 0.0248 µM
- IC50 [2]: ≥ 50 µM

Compound: CN1CCN(CC(=O)Nc2cc(C(=O)Nc3cnc(-c4ccccc4Cl)cn3)ccc2OC(F)(F)F)CC1 [Example 44, N-[5-(2-chlorophenyl)pyrazin-2-yl]-3-{[(4-methylpiperazin-1-yl)acetyl]amino}-4-(trifluoromethoxy)benzamide]
- IC50 [1]: 16.8 µM
- IC50 [2]: ≥ 50 µM

Compound: O=C(CN1CCOCC1)Nc1cc(C(=O)Nc2cnc(-c3cc(F)cc(F)c3)cn2)ccc1OC(F)(F)F [Example 31, N-[5-(3,5-difluorophenyl)pyrazin-2-yl]-3-[(morpholin-4-ylacetyl)amino]-4-(trifluoromethoxy)benzamide]
- IC50 [1]: 0.0885 µM
- IC50 [2]: 26.8 µM

Compound: O=C(CN1CCOCC1)Nc1cc(C(=O)Nc2cnc(-c3cncnc3)cn2)ccc1OC(F)(F)F [Example 26, 3-[(morpholin-4-ylacetyl)amino]-N-[5-(pyrimidin-5-yl)pyrazin-2-yl]-4-(trifluoromethoxy)benzamide]
- IC50 [1]: 0.058 µM
- IC50 [2]: ≥ 50 µM

Compound: Cc1ccncc1-c1cnc(NC(=O)c2ccc(OC(F)(F)F)c(NC(=O)CN3CCOCC3)c2)cn1 [Example 45, N-[5-(4-methylpyridin-3-yl)pyrazin-2-yl]-3-[(morpholin-4-ylacetyl)amino]-4-(trifluoromethoxy)benzamide]
- IC50 [1]: 16.7 µM
- IC50 [2]: ≥ 50 µM

Compound: Nc1ncc(-c2cnc(NC(=O)c3ccc(OC(F)(F)F)c(NC(=O)CN4CCOCC4)c3)cn2)cn1 [Example 53, N-[5-(2-aminopyrimidin-5-yl)pyrazin-2-yl]-3-[(morpholin-4-ylacetyl)amino]-4-(trifluoromethoxy)benzamide]
- IC50 [1]: 0.83 µM
- IC50 [2]: 9.5 µM

Compound: O=C(CN1CCOCC1)Nc1cc(C(=O)Nc2cnc(-c3ccccc3)cn2)ccc1OC(F)(F)F [Example 10, 3-[(morpholin-4-ylacetyl)amino]-N-(5-phenylpyrazin-2-yl)-4-(trifluoromethoxy)benzamide]
- IC50 [1]: 0.0632 µM
- IC50 [2]: ≥ 50 µM

Compound: O=C(CN1CCOCC1)Nc1cc(NC(=O)c2cnc(-c3ccccc3)cn2)ccc1OC(F)(F)F [Example 6, N-{3-[(morpholin-4-ylacetyl)amino]-4-(trifluoromethoxy)phenyl}-5-phenylpyrazine-2-carboxamide]
- IC50 [1]: 0.834 µM
- IC50 [2]: ≥ 50 µM

Compound: CN1CCN(CC(=O)Nc2cc(C(=O)Nc3cnc(-c4cncnc4)cn3)ccc2OC(F)(F)F)CC1 [Example 49]
- IC50 [1]: 0.26 µM
- IC50 [2]: ≥ 50 µM

Compound: CN1CCN(CC(=O)Nc2cc(C(=O)Nc3cnc(-c4cccnc4)cn3)ccc2OC(F)(F)F)CC1 [Example 22, 3-{[(4-methylpiperazin-1-yl)acetyl]amino}-N-[5-(pyridin-3-yl)pyrazin-2-yl]-4-(trifluoromethoxy)benzamide]
- IC50 [1]: 0.017 µM
- IC50 [2]: 38 µM

Compound: O=C(CN1CCOCC1)Nc1cc(C(=O)Nc2ccc(-c3cccnc3)nn2)ccc1OC(F)(F)F [Example 14, 3-[(morpholin-4-ylacetyl)amino]-N-[6-(pyridin-3-yl)pyridazin-3-yl]-4-(trifluoromethoxy)benzamide]
- IC50 [1]: 0.054 µM
- IC50 [2]: ≥ 50 µM
